Laboratory results published in patent US8906925B2, “Pyrido[4,3-B]indoles containing rigid moieties” (Medivation Technologies, Inc., priority 2008, dated 2014).

Columns and labels:
histamine receptor H1 = histamine receptor H1 (Homo sapiens, UniProt P35367); experiment: Histamine H1 radioligand binding ([3H]Pyrilamine); settings: read-out: Histamine Binding (1 μM) H1, percent inhibition of specific binding, 1 μM
In short: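 Values are percent inhibition of specific [3H]pyrilamine (1.2 nM) binding with compounds at ≤1 μM (1% DMSO vehicle); 180 min incubation at 25 °C, pH 7.4 Tris buffer, on CHO-expressed human H1 receptor; 1 μM pyrilamine defined nonspecific binding, bound ligand counted after filtration.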

[1] = biological target: T1, human recombinant serotonin (5-Hydroxytryptamine) 5-HT2C receptor (Homo sapiens, UniProt P28335); experiment: Serotonin 5-HT2C radioligand binding ([3H]Mesulergine); settings: compound at 0.1 μM; read-out: Inhibition of ligand binding, Serotonin 5-HT2C (percent inhibition of specific binding)
T1 construct: expressed in transfected cells; host or cells: Chinese hamster ovary (CHO-K1) cells
T1 sequence (P28335 33-458): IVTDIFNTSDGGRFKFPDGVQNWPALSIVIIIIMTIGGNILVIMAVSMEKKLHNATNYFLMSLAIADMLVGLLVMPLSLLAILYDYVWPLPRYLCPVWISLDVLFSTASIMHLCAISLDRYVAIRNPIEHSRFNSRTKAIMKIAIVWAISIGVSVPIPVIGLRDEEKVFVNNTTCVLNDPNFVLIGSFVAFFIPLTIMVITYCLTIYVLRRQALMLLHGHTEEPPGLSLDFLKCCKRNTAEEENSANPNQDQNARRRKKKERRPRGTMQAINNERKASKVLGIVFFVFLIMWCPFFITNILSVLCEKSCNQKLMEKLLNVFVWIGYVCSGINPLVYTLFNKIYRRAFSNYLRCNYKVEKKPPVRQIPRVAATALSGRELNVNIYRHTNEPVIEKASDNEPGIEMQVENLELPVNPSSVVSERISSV
Description: Compounds of the invention were incubated with 1 nM [^3H]Mesulergine for 60 min. at 25° C. Non-specific binding was estimated in the presence of 1 μM Mianserin. Receptor proteins were filtered and washed, the filters were then counted to determine [^3H]Mesulergine specifically bound. Compounds were screened at 1 μM or lower, using 1% DMSO as vehicle. Biochemical assay results are presented as the percent inhibition of specific binding in Table 10.

[2] = biological target: T2, human recombinant serotonin (5-Hydroxytryptamine) 5-HT2A receptor (Homo sapiens, UniProt P28223); experiment: Serotonin 5-HT2A radioligand binding ([3H]Ketanserin); settings: read-out: Inhibition of ligand binding, Serotonin 5-HT2A (percent inhibition of specific binding), compound at 0.1 μM
T2 construct: expressed in transfected cells; host or cells: Chinese hamster ovary (CHO-K1) cells
Description: Compounds of the invention were incubated with 0.5 nM [^3H]Ketanserin for 60 min. at 25° C. Non-specific binding was estimated in the presence of 1 μM Mianserin. Receptor proteins were filtered and washed, the filters were then counted to determine [^3H]Ketanserin specifically bound.

[3] = biological target: human dopamine D2L receptor (Homo sapiens, UniProt P14416); experiment: Dopamine D2L radioligand binding ([3H]Spiperone); settings: percent inhibition of specific binding; compound at 1 μM; read-out: Inhibition of ligand binding, Dopamine D2L
Text: Non-specific binding was estimated in the presence of […] Haloperidol. Receptor proteins were filtered and washed, the filters were then counted to determine [^3H]Spiperone specifically bound. […] Biochemical assay results are presented as the percent inhibition of specific binding in Table 9.

[4] = biological target: human recombinant serotonin (5-Hydroxytryptamine) 5-HT7 receptor (Homo sapiens, UniProt P34969); experiment: Serotonin 5-HT7 radioligand binding ([3H]LSD); settings: compound at 0.1 μM; read-out: Inhibition of ligand binding, Serotonin 5-HT7 (percent inhibition of specific binding)
Text: Receptor proteins were filtered and washed, the filters were then counted to determine [^3H]LSD specifically bound.

[5] = biological target: T3, human recombinant serotonin (5-Hydroxytryptamine) 5-HT6 receptor (Homo sapiens, UniProt P50406); experiment: Serotonin 5-HT6 radioligand binding ([3H]LSD); settings: compound at 0.1 μM; read-out: Inhibition of ligand binding, Serotonin 5-HT6 (percent inhibition of specific binding)
T3 construct: expressed in transfected cells; host or cells: human HeLa cells
Description: Compounds of the invention were incubated with 1.5 nM [3H]Lysergic acid diethylamide (LSD) for 120 min. at 37° C. […] Receptor proteins were filtered and washed, the filters were then counted to determine [3H]LSD specifically bound. Compounds were screened at 1 μM or lower, using 1% DMSO as vehicle. Biochemical assay results are presented as the percent inhibition of specific binding in Table 10.

human dopamine D2L receptor, sequence (P14416 whole entry): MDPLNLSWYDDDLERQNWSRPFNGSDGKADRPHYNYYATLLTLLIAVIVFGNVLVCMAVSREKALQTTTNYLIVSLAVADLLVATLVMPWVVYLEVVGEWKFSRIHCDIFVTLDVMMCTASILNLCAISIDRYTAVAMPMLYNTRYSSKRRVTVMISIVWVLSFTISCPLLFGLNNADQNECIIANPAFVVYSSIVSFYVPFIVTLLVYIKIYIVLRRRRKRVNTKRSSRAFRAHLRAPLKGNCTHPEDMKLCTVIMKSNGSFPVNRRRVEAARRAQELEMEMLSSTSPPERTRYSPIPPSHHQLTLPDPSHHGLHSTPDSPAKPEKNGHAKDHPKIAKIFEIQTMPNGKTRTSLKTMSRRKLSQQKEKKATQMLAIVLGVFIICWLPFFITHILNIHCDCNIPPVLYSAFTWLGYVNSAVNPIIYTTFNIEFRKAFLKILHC
T3 sequence (P50406 whole entry): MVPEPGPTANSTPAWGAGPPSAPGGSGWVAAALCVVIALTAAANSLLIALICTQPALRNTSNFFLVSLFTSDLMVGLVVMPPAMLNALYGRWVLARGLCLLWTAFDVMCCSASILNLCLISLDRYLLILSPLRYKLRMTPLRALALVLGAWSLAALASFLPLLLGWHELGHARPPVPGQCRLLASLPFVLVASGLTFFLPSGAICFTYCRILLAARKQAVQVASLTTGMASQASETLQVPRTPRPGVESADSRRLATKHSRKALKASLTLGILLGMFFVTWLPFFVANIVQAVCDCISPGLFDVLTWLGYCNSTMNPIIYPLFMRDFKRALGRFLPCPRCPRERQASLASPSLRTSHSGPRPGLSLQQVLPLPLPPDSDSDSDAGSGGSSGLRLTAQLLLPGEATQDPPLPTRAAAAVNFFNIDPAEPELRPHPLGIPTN
histamine receptor H1, sequence (P35367 whole entry): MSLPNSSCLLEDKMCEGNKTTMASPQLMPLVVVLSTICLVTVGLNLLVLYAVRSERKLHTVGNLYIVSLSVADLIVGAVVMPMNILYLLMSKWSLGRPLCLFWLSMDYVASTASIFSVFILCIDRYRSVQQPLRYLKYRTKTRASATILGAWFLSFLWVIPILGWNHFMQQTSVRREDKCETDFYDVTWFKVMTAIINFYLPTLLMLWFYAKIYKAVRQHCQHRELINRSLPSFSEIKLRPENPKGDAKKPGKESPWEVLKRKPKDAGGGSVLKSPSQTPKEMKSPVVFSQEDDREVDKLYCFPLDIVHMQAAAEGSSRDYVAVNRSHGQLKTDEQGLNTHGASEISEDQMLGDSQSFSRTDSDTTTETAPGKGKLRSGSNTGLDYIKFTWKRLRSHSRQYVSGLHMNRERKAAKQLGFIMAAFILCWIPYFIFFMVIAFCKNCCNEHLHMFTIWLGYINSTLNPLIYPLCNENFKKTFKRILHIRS
human recombinant serotonin (5-Hydroxytryptamine) 5-HT7 receptor, sequence (P34969 whole entry): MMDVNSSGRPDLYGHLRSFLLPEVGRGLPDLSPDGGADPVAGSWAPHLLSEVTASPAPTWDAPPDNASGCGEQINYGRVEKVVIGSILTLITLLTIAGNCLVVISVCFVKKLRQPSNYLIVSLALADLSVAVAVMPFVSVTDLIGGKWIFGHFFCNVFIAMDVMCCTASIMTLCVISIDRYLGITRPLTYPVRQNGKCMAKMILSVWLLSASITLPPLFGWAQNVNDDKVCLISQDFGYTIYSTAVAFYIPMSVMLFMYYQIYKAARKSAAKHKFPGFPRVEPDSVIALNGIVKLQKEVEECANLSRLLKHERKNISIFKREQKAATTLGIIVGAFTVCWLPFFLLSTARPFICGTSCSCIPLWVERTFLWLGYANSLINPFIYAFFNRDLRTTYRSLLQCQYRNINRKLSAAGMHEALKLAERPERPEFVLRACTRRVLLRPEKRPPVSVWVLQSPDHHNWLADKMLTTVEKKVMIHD
T2 sequence (P28223 whole entry): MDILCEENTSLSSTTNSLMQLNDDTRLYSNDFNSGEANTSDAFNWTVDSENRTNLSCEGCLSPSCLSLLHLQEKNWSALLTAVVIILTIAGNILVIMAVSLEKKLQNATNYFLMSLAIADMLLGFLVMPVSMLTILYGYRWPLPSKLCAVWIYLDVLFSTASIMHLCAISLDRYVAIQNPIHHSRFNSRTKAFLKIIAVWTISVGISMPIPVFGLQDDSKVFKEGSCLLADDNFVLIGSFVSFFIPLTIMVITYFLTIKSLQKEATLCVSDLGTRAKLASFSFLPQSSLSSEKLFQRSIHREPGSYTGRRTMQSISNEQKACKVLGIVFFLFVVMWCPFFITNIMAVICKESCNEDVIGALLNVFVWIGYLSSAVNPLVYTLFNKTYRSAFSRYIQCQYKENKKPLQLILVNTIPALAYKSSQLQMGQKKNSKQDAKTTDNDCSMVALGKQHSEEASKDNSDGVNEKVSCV

Row | Compound | inhibition at 1 µM (histamine receptor H1) [%] | inhibition at 0.1 µM [1] [%] | inhibition at 0.1 µM [2] [%] | inhibition at 1 µM [3] [%] | inhibition at 0.1 µM [4] [%] | inhibition at 0.1 µM [5] [%]
1 | C/C(=C\n1c2c(c3cc(F)ccc31)CN(C)CC2)c1ccc(C)nc1 [Compound 251, (E)-8-fluoro-2-methyl-5-(2-(6-methylpyridin-3-yl)prop-1-enyl)-2,3,4,5-tetrahydro-1H-pyrido[4,3-b]indole] | 15 | 77 | 85 | 25 | 74 | 8
2 | C/C(=C\n1c2c(c3cccc(Cl)c31)CN(C)CC2)c1ccc(C)nc1 [Compound 252, (E)-6-chloro-2-methyl-5-(2-(6-methylpyridin-3-yl)prop-1-enyl)-2,3,4,5-tetrahydro-1H-pyrido[4,3-b]indole] | 22 | 50 | 67 | 13 | 23 | 9
3 | C/C(=C\n1c2c(c3ccc(Cl)cc31)CN(C)CC2)c1ccc(C)nc1 [Compound 253, (E)-7-chloro-2-methyl-5-(2-(6-methylpyridin-3-yl)prop-1-enyl)-2,3,4,5-tetrahydro-1H-pyrido[4,3-b]indole] | 20 | 49 | 85 | 22 | 54 | 9
4 | C/C(=C\n1c2c(c3ccccc31)CN(C)CC2)c1ccc(C)nc1 [Compound 254, (E)-2-methyl-5-(2-(6-methylpyridin-3-yl)prop-1-enyl)-2,3,4,5-tetrahydro-1H-pyrido[4,3-b]indole] | 7 | 52 | 65 | 11 | 63 | 15
5 | C/C(=C\n1c2c(c3cc(F)c(F)cc31)CN(C)CC2)c1ccc(C)nc1 [Compound 255, (E)-7,8-difluoro-2-methyl-5-(2-(6-methylpyridin-3-yl)prop-1-enyl)-2,3,4,5-tetrahydro-1H-pyrido[4,3-b]indole] | 11 | 69 | 81 | 29 | 54 | 4
6 | C/C(=C/n1c2c(c3cc(Cl)ccc31)CN(C)CC2)c1ccc(Cl)c(Cl)c1 [Compound 256, (Z)-8-chloro-5-(2-(3,4-dichlorophenyl)prop-1-enyl)-2-methyl-2,3,4,5-tetrahydro-1H-pyrido[4,3-b]indole] | 92 | 90 | 100 | 34 | 85 | 96
7 | C/C(=C\n1c2c(c3cc(C)ccc31)CN(C)C(C)C2)c1ccncc1 (stereo not drawn) [Compound 257, (E)-2,3,8-trimethyl-5-(2-(pyridin-4-yl)prop-1-enyl)-2,3,4,5-tetrahydro-1H-pyrido[4,3-b]indole] | 18 | 94 | 94 | 72 | 75 | 71
8 | C/C(=C\n1c2c(c3cc(C)ccc31)CN(C)C(C)C2)c1ccc(F)cc1 (stereo not drawn) [Compound 258, (E)-5-(2-(4-fluorophenyl)prop-1-enyl)-2,3,8-trimethyl-2,3,4,5-tetrahydro-1H-pyrido[4,3-b]indole] | 59 | 98 | 98 | 81 | 84 | 81
9 | C/C(=C\n1c2c(c3cccc(F)c31)CN(C)CC2)c1ccc(C)nc1 [Compound 260, (E)-6-fluoro-2-methyl-5-(2-(6-methylpyridin-3-yl)prop-1-enyl)-2,3,4,5-tetrahydro-1H-pyrido[4,3-b]indole] | -19 | 29 | 34 | 9 | 5 | -7
10 | C/C(=C\n1c2c(c3ccc(F)cc31)CN(C)CC2)c1ccc(C)nc1 [Compound 261, (E)-7-fluoro-2-methyl-5-(2-(6-methylpyridin-3-yl)prop-1-enyl)-2,3,4,5-tetrahydro-1H-pyrido[4,3-b]indole] | 11 | 31 | 74 | 28 | 47 | 4
11 | C/C(=C\n1c2c(c3cc(Cl)ccc31)CN(C)C(C)C2)c1ccc(F)cc1 (stereo not drawn) [Compound 262, (E)-8-chloro-5-(2-(4-fluorophenyl)prop-1-enyl)-2,3-dimethyl-2,3,4,5-tetrahydro-1H-pyrido[4,3-b]indole] | 66 | 100 | 99 | 97 | 94 | 99
12 | C/C(=C\n1c2c(c3cc(OC(F)(F)F)ccc31)CN(C)CC2)c1ccncc1 [Compound 263, (E)-2-methyl-5-(2-(pyridin-4-yl)prop-1-enyl)-8-(trifluoromethoxy)-2,3,4,5-tetrahydro-1H-pyrido[4,3-b]indole] | 8 | 18 | 64 | 89 | 15 | 99
13 | Cc1ccc2c(c1)c1c(n2/C=C(\c2ccncc2)C(C)C)CCN(C)C1 [Compound 264, (Z)-2,8-dimethyl-5-(3-methyl-2-(pyridin-4-yl)but-1-enyl)-2,3,4,5-tetrahydro-1H-pyrido[4,3-b]indole] | 24 | 94 | 99 | 49 | 51 | 89
14 | CC(C)/C(=C/n1c2c(c3cc(Cl)ccc31)CN(C)CC2)c1ccncc1 [Compound 265, (Z)-8-chloro-2-methyl-5-(3-methyl-2-(pyridin-4-yl)but-1-enyl)-2,3,4,5-tetrahydro-1H-pyrido[4,3-b]indole] | 22 | 89 | 96 | 73 | 52 | 97
15 | CCN1CCc2c(c3ccccc3n2/C=C(\C)c2ccncc2)C1 [Compound 266, (E)-2-ethyl-5-(2-(pyridin-4-yl)prop-1-enyl)-2,3,4,5-tetrahydro-1H-pyrido[4,3-b]indole] | -1 | 12 | 67 | 94 | 18 | 81
16 | C/C(=C\n1c2c(c3cc(C(C)C)ccc31)CN(C)CC2)c1ccncc1 [Compound 267, (E)-8-isopropyl-2-methyl-5-(2-(pyridin-4-yl)prop-1-enyl)-2,3,4,5-tetrahydro-1H-pyrido[4,3-b]indole] | 6 | 54 | 66 | 85 | 85 | 87
17 | C/C(=C\n1c2c(c3cc(C(F)(F)F)ccc31)CN(C)CC2)c1ccc(F)cc1 [Compound 268, (E)-5-(2-(4-fluorophenyl)prop-1-enyl)-2-methyl-8-(trifluoromethyl)-2,3,4,5-tetrahydro-1H-pyrido[4,3-b]indole] | 53 | 86 | 98 | 98 | 87 | 97
